The record followed here is patent EP4781984A1 (Beyang Therapeutics Co., Ltd., priority 2023, dated 2025).

A short description of series [1]: Ophthalmic formulations based on polyethylene glycol series vehicles: composition and state (Example 7). In kind it is physicochemical. The procedure, abridged:
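Compound was dissolved, or nearly dissolved, in PEG 400 by sonication (heated to 50 °C if needed), then mixed into Tris-HCl buffer containing hydroxypropyl-β-cyclodextrin, poloxamer 188 and gellan gum or another viscosity modifier. Physical state was scored visually as solution, near-clear solution, suspension or gel.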

In a further series the target is T1, VEGFR1 (Homo sapiens, UniProt P17948).
T1 construct: purchased Invitrogen PR6731B
T1 sequence (P17948 27-1338): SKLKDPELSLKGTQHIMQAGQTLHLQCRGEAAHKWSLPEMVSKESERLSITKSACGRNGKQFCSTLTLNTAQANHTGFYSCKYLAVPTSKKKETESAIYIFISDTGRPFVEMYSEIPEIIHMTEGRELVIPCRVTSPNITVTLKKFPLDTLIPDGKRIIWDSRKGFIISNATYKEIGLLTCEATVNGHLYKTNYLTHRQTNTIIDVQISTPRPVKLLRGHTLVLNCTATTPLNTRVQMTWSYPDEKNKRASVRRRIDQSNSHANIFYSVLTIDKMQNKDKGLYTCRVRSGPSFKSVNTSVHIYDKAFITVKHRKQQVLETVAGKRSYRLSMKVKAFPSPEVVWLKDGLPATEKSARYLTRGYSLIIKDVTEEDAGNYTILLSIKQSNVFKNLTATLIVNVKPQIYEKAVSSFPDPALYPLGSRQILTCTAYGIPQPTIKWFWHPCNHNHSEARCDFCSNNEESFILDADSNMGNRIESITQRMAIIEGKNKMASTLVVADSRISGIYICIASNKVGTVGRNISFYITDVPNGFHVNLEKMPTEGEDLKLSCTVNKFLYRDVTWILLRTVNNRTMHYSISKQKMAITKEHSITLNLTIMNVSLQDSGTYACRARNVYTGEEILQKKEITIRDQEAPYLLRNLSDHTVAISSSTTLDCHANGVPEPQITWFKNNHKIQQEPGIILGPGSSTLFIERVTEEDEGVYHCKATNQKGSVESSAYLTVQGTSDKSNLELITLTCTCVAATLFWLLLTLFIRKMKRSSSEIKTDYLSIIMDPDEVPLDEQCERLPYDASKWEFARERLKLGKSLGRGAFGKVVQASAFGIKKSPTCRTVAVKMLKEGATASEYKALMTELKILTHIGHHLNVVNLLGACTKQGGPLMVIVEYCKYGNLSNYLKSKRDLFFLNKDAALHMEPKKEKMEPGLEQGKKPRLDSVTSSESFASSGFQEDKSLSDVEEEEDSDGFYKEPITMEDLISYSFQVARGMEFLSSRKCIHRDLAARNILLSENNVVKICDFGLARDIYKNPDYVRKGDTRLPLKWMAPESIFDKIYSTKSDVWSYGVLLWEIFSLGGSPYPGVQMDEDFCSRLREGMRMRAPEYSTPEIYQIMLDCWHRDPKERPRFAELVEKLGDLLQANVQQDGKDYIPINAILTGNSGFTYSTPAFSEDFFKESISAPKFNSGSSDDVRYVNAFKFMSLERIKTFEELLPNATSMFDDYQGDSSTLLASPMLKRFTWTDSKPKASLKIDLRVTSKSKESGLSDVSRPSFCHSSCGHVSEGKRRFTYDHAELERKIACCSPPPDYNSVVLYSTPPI
The experiment in a line: Kinase inhibitory activity, Mobility Shift Assay (VEGFR1). In kind it is biochemical. Here is the method:
(§1) Assay for Inhibitory Activity of Compounds Against VEGFR and EGFR Kinases
(§2) This assay directly monitors the inhibitory activity of compounds on kinase phosphorylation by measuring non-phosphorylated and phosphorylated substrates in the kinase reaction using Mobility Shift Assays/IMAP™ analysis. Table 2. Reagents and Instruments
(§3) Kinase and DTT were added to 1X kinase buffer to form a 2.5X kinase solution; 10 µL of the 2.5X kinase solution was transferred to a 384-well reaction plate, and 1X kinase buffer was added to the negative control wells. The plate was incubated at room temperature for 10 minutes; FAM-labeled peptide, MgCl2, ATP, and other reagents were added to 1X kinase buffer to form a 2.5X substrate solution; 10 µL of the above 2.5X substrate solution was transferred to the 384-well reaction plate; the plate was incubated at 28°C for varying times, and then 25 µL of stop solution was added to the 384-well reaction plate to terminate the reaction. Conversion rate data were read on a CaliperEZ Reader II. […] IC50 values were fitted using XLFit excel add-in version 5.4.0.8. Y = Bottom + (Top−Bottom)/(1 + […]) [formula]
(§4) X is the log value of compound concentration, Y is the inhibition rate (% inhibition).

In series [2] the target is T2, VEGFR2 autophosphorylation (pVEGFR2) in HUVEC cells (Homo sapiens, UniProt P35968).
T2 construct: endogenous in cells; host or cells: HUVEC
T2 sequence (P35968 20-1356): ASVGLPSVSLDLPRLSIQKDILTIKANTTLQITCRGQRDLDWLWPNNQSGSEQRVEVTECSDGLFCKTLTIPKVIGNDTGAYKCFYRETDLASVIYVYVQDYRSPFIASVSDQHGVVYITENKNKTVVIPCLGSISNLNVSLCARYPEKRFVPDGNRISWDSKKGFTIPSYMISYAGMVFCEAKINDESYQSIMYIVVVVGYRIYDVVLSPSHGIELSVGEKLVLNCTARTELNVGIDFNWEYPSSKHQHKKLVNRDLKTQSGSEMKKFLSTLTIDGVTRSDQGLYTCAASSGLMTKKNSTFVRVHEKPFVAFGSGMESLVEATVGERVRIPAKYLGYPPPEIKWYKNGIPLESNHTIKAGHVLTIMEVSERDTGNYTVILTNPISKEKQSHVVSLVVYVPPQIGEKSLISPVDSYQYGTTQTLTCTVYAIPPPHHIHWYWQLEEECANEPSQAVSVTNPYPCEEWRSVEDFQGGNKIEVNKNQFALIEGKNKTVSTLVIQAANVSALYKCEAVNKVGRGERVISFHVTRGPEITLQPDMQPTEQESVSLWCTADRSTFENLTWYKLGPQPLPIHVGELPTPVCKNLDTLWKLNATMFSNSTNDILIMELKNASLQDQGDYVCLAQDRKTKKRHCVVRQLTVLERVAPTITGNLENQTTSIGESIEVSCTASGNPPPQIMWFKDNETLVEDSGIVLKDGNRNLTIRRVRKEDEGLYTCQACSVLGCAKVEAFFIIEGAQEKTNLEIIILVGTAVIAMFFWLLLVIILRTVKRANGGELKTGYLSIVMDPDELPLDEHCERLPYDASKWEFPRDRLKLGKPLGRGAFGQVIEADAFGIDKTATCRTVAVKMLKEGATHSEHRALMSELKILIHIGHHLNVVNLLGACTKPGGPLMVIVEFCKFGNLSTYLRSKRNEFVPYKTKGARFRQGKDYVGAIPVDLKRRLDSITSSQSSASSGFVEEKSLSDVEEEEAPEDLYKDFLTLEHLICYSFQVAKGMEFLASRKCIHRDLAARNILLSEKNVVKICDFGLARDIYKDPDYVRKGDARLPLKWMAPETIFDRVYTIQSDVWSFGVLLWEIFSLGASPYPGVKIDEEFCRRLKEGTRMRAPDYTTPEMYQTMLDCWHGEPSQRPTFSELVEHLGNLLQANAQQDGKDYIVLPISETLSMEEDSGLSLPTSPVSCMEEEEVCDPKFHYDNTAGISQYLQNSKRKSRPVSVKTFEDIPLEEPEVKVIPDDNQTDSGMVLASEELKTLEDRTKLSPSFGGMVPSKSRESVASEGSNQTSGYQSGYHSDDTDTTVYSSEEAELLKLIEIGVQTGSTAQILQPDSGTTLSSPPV
The experiment in a line: Inhibition of VEGF-induced VEGFR2 phosphorylation in HUVEC cells (ELISA). The settings on record: 50 ng/mL human VEGF, compound 1 hour. In kind it is cell-based. The source says:
Assay for Compound Inhibition of VEGFR2 Phosphorylation in HUVEC Cells
VEGF is a potent growth factor that promotes angiogenesis and vascular permeability. Vascular endothelial growth factor receptor 2 (VEGFR2) is the primary receptor for VEGF-induced endothelial cell signaling. Upon ligand binding, VEGFR2 undergoes autophosphorylation and is activated. The primary function from VEGFR2 signaling is to induce blood vessel formation during development and after tissue injury, and to bypass blocked vessels. Pathologically, VEGF and VEGFR2 are involved in tumor angiogenesis and vascular leakage. They are considered major players in many different cancers and ocular diseases accompanied by pathological neovascularization. This assay uses ELISA to measure the compound's ability to inhibit VEGF-induced VEGFR2 autophosphorylation (pVEGFR2) in HUVEC cells. Table 7. Reagents and Instruments
Before cell seeding, cells reached 60%-80% confluency in cell culture flasks. The cell suspension was diluted with pre-warmed complete medium to 4.5×10^6 cells/mL. 80 microliters of cell suspension was added to all wells of a 96-well cell plate (Corning-3599); incubated overnight at 37°C and 5% CO2. Compound powder was dissolved in DMSO to 10 mM and stored in a nitrogen cabinet. Compound dilution master plate: In a 96-well V-bottom plate (Axygen- WIPP02280), reference compound Ponatinib or test compound concentrations were added, starting from 5 mM (5 microliters of 10 mM compound solution plus 5 microliters DMSO) with 3-fold serial dilutions for a total of 8 concentration points. […] 20 microliters of diluted compound was transferred from the intermediate plate to the cell plate. The cell plate was then incubated at 37°C and 5% CO2 for 1 hour. […] It was gently shaken for 30 seconds, and the absorbance was measured within 30 minutes using a SpectraMax® 340 PC 384 Absorbance Microplate Reader, reading the optical density value at 450 nm. […]
All other values are expressed as a percentage of these controls (inhibition rate). […]
On the technique in general: An ELISA detects its analyte on a solid surface through an enzyme-linked reagent.

In the next series the target is T3, EGFR (Homo sapiens, UniProt P00533).
T3 construct: purchased Carna 08-115
T3 sequence (P00533 25-1210): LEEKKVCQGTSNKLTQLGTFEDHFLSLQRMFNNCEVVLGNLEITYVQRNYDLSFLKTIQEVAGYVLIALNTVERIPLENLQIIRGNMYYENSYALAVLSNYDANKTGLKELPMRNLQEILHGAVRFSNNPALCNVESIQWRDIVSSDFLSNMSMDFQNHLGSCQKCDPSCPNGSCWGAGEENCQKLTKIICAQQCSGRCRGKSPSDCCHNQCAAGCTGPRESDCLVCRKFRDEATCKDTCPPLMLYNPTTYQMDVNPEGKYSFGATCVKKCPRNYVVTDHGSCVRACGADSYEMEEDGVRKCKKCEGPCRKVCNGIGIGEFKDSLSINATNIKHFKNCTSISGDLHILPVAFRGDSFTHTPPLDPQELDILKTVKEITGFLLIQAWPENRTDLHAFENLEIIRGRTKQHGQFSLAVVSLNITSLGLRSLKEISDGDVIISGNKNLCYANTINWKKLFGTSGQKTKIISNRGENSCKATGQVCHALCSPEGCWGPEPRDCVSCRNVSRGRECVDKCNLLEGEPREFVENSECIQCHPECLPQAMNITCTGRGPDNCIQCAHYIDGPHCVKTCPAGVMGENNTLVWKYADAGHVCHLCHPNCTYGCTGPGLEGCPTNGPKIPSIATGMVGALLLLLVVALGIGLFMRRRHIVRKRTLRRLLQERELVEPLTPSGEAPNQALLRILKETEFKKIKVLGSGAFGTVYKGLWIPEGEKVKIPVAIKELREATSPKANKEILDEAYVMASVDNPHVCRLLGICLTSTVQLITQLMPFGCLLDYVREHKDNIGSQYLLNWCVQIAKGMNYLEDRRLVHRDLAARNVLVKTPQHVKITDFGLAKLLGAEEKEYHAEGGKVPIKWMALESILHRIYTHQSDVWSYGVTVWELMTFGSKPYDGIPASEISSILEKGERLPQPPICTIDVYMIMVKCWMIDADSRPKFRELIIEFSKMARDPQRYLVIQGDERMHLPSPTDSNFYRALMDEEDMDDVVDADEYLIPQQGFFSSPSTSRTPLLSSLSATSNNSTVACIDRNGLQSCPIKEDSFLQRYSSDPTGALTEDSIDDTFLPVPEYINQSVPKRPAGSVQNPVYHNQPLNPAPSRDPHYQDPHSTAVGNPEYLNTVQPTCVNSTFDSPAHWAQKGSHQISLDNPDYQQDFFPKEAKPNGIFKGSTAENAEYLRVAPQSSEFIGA
The experiment in a line: Kinase inhibitory activity, Mobility Shift Assay (EGFR). In kind it is biochemical. The procedure, abridged:
(§5)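 Each kinase pre-incubated 10 min at room temperature, then FAM-labelled peptide with MgCl2 and ATP added; reaction at 28 °C for kinase-dependent times before stop. Substrate conversion read by mobility shift; IC50 from a four-parameter fit of % inhibition against log concentration.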

In another series the target is T4, VEGFR2 (Homo sapiens, UniProt P35968).
T4 construct: purchased Carna 08-191
T4 sequence (P35968 20-1356): as the sequence (P35968 20-1356) above
Nature of the series: Kinase inhibitory activity, Mobility Shift Assay (VEGFR2). In kind it is biochemical. An outline of the steps: as §5

For a further series, the target named is T5, VEGFR3 (Homo sapiens, UniProt P35916).
T5 construct: purchased Invitrogen PV4129
The experiment in a line: Kinase inhibitory activity, Mobility Shift Assay (VEGFR3). In kind it is biochemical. Here is the method: as §1, §2, §3, §4

[3] abbreviates: Table 15: 10 mg/mL, Polyethylene glycol 400 10, Hydroxypropyl-β-cyclodextrin 10, Gellan Gum Gelrite 0.3, Poloxamer 188 1, Tris solution and Citric acid.
Where [4] appears, read: Table 16: 2 mg/mL, Polyethylene Glycol 400 5, Poloxamer 188 1, Hydroxypropyl-β-cyclodextrin 6, Gellan Gum Gelrite 0.15, Tris-HCl Buffer (pH 6.8) 25mM.

Regarding `CCNC(=O)c1cc(F)ccc1Sc1ccc2c(/C=C/c3ccc(CN4CCCC4)cn3)n[nH]c2c1` [Compound I-97, N-ethyl-5-fluoro-2-({3-[(E)-2-{5-[(pyrrolidin-1-yl)methyl]pyridin-2-yl}ethenyl]-1H-indazol-6-yl}sulfanyl)benzamide], in series [1] (setting [3]), the “State Description: pH” value is on record as around 5.5 and the “State Description: state” value is “gel”. In series [1] (setting [4]), the “Osmolality (mOsm/kg)” value is listed as around 300 mOsm/kg, the “State Description: pH” value is around 7 and the “State Description: state” value is listed as “solution”.

For the molecule `O=C(NC1CC1)c1cccc(F)c1Sc1ccc2c(/C=C/c3cnn(CCCN4CCCC4)c3)n[nH]c2c1` [Compound I-44, N-cyclopropyl-3-fluoro-2-({3-[(E)-2-{1-[3-(pyrrolidin-1-yl)propyl]-1H-pyrazol-4-yl}ethenyl]-1H-indazol-6-yl}sulfanyl)benzamide], the IC50 (in general, the concentration that gives 50% inhibition) is 1 to 10 nM at VEGFR1; 1 to 5 nM in series [2]; 6 to 60 µM on EGFR; 1 to 10 nM at VEGFR2; 10 to 100 nM on VEGFR3.
